Measurements published in US10086006B2, “Method for improving drug treatments in mammals” (priority 2013, dated 2018).
Values after ≈ are worked out from the molar mass of the structure shown. Read-outs that look alike come from different tables or passages of the source.

Columns and labels:
[1] = tested on: Escherichia coli (ATCC 25922); assay: Dose-fractionation study in a one-compartment in vitro infection model; type: cell-based
Description: (§1) A dose-fractionation study was conducted utilizing a wild-type strain of Escherichia coli (ATCC 25922; fosfomycin MIC=0.5 mg/L agar; 1 mg/L broth microtiter) in a one-compartment in vitro infection model where the human drug concentration-time profile was simulated over a 24 hour study period.
In such a circumstance, one way to overcome the poor sensitivity of the susceptibility test method is to increase the inoculum size and/or the volume of test system. The one-compartment in vitro infection model is a much more sensitive tool to measure the drug concentration required to inhibit a clinically relevant bacterial inoculum owing to its ability accommodate a higher inoculum and the larger volume (125 mL) of the test system. For this reason, dose-fractionation studies were conducted using a one-compartment in vitro infection model to identify the PK-PD measure most closely associated with efficacy.
(§2) Note the relatively stronger relationship between the change in bacterial density and AUC0-24:RIC ratio and % T>RIC compared with that for Cmax:RIC ratio, where RIC is the concentration needed to inhibit the fosfomycin-resistant subpopulation.

[2] = tested on: fosfomycin-resistant E. coli subpopulation (ATCC 25922); assay: Susceptibility (agar MIC, RIC) of the inherently fosfomycin-resistant subpopulation; type: cell-based, Escherichia coli; conditions: resistant subpopulation within the standard starting inoculum 5×10^5 CFU/mL
Description: RIC as used herein refers to the resistant inhibitory concentration and identifies the concentrations of antimicrobial required to inhibit the less susceptible or ‘resistant’ mutant subpopulation of organisms. RIC is a new term coined by the inventors of the present invention and is utilized throughout the specification herewith.
(§3) Another reason may be the volume of the micro-titer well (100-200 μL) used in the test method is small, containing 50,000-100,000 CFU. The inherently fosfomycin-resistant subpopulation has a frequency of 1 in 350,000 CFU. Thus, for fosfomycin, the standard susceptibility test method is an insensitive measure of the drug concentration required to inhibit a clinically relevant bacterial inoculum.
as §2

[3] = tested on: Escherichia coli ATCC 25922; assay: Neutropenic murine-thigh infection model; type: in vivo; conditions: neutropenic mice
Description: In vivo animal studies utilizing the neutropenic murine-thigh model were conducted to confirm key results obtained from the in vitro PK-PD infection models. Initial goals of the studies were to confirm the presence of a clinically-relevant fosfomycin-resistant subpopulation in vivo and to confirm % T>RIC was the PK-PD measure that predicted response.
In brief, six-week-old specific-pathogen-free female CD1 (ICR/Swiss) mice were rendered neutropenic by two intra-peritoneal injections of cyclophosphamide, 150 mg/kg of body weight 4 days prior to the study and 100 mg/kg 1 day prior to the study. The challenge isolate was Escherichia coli ATCC 25922 (fosfomycin MIC, 1 mg/L), which was the same strain used in the aforementioned in vitro PK-PD infection model studies. […]
To determine which PK-PD measure best described efficacy, the number of bacteria in the thigh at the end of 24 hours of therapy (or earlier for some of the lowest doses) was correlated with 1) the Cmax:MIC ratio, 2) the 24-hour AUC0-24:MIC ratio, 3) the percentage of the dosing interval during that serum concentrations exceed the MIC, and 4) the percentage of the dosing interval during that serum concentrations exceed the RIC for each of the dosage regimens studied. […] The correlation between efficacy and each of the […] PK-PD indices was determined by nonlinear least-squares multivariate regression. […]

[4] = tested on: Escherichia coli (ATCC 25922); assay: Susceptibility test (MIC) of fosfomycin against wild-type Escherichia coli; type: cell-based
Description: MIC as used herein refers to the minimum inhibitory concentration (MIC) of an antimicrobial that will inhibit the visible growth of a microorganism after overnight incubation. MICs are important in diagnostic laboratories to confirm resistance of microorganisms to an antimicrobial agent and also to monitor the activity of new antimicrobial agents. A MIC is generally regarded as the most basic laboratory measurement of the activity of an antimicrobial agent against an organism. Clinically, the MICs are used not only to determine the amount of antibiotic that a patient will receive but also the type of antibiotic used, which in turn lowers the opportunity for microbial resistance to specific antimicrobial agents. Applying MIC testing to a number of bacterial strains in the same species provides an estimate of the concentration that inhibits 50% (MIC50) and 90% (MIC90) of bacterial isolates and can indicate shifts in susceptibility of bacterial populations to antibiotics.
as §1, §3

Compound: C[C@@H]1O[C@@H]1P(=O)(O)O [fosfomycin]
- relation of bacterial killing to dosing interval ([1]; at maximally effective AUC0-24:RIC ratios and free-drug % T>RIC, 24 hour): as the duration of the dosing interval decreases, the amount of bacterial killing increases
- range of the change in bacterial density at 24 hours between regimens ([1]; regimens identical in total daily dose and % T>MIC (100%), differing in dosing interval, simulated human concentration-time profile): 8 log10
- MIC ([2]; Escherichia coli, ATCC25922, agar): 32 to 64 µg/mL
- agar MIC of the fosfomycin-resistant subpopulation ([2]; agar): 32 mg/L
- density of the drug-resistant subpopulation in the thighs after 24 hours of therapy ([3]; dose range 1.56 to 400 mg/kg every 3 hours): eliminated at the highest dose-level
- PK-PD measure correlated with change in log10 CFU in the thighs after 24 hours of therapy ([3]; dosing intervals of 3, 6, 12, and 24 hours): % T>RIC was well-correlated with change in bacterial density
- MIC ([4]; ATCC25922, E. coli ATCC 25922 challenge isolate, method not stated, read-out: fosfomycin MIC of the challenge isolate): 1 µg/mL
- MIC ([4]; ATCC25922, agar, wild-type E. coli ATCC 25922, read-out: fosfomycin MIC (agar)): 0.5 µg/mL (≈ 3.62 µM)
- MIC ([4]; ATCC25922, broth microtiter, wild-type E. coli ATCC 25922, read-out: fosfomycin MIC (broth microtiter)): 1 µg/mL (≈ 7.24 µM)
